Results reported in BindingDB's records for doi:10.1021/acs.jmedchem.9b00775 (University of North Carolina at Chapel Hill, 2020).

Legend:
[1] = Inhibition of RNA-dependent RNA polymerase in Zika virus H/PAN/2016/BEI-259634 infected in human NSC assessed as antiviral activity measured 72 hrs post infection by CellTiter-Glo assay
[2] = Inhibition of RNA-dependent RNA polymerase in Zika virus PRVABC59/Human/2015/Puerto Rico infected in human NSC assessed as antiviral activity measured 72 hrs post infection by CellTiter-Glo assay
[3] = Inhibition of RNA-dependent RNA polymerase in Zika virus MR766 infected in African green monkey Vero E6 cells assessed as antiviral activity
[4] = Inhibition of MTase in Zika virus infected in African green monkey Vero cells assessed as antiviral activity incubated for 5 days by inverted microscopic method
[5] = Inhibition of RNA-dependent RNA polymerase in Zika virus PRVABC59 infected in African green monkey Vero cells assessed as antiviral activity measured 96 hrs post infection by plaque assay
[6] = Inhibition of RNA-dependent RNA polymerase in Zika virus PRVABC59 infected in African green monkey Vero cells infected with supernatants from virus-infected human SNB-19 cells treated with compound for 1 hr assessed as antiviral activity after 48 to 72 hrs
[7] = Inhibition of RNA-dependent RNA polymerase in Zika virus MR766 infected in HEK293 cells assessed as antiviral activity by measuring NS1 protein expression preincubated for 1 hr followed by viral infection and measured after 24 hrs by TR-FRET assay
Genome polyprotein [8] = target: T1, Genome polyprotein (Zika virus, UniProt A0A143MHK7); experiment: Inhibition of RNA-dependent RNA polymerase in Zika virus MR766 infected in African green monkey Vero cells assessed as antiviral activity by measuring reduction in virus-induced cytopathic effect after 5 days by MTS assay
T1 sequence (A0A143MHK7 whole entry): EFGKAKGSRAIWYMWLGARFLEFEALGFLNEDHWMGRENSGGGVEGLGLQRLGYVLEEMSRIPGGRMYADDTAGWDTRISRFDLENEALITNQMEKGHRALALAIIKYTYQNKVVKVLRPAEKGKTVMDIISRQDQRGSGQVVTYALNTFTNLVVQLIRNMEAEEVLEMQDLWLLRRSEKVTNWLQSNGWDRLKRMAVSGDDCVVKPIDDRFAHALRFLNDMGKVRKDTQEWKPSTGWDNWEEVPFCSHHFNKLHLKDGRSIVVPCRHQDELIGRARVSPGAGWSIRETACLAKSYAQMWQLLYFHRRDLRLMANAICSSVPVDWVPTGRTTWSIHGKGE

Genome polyprotein [9] = target: T1, Genome polyprotein; experiment: Inhibition of RNA-dependent RNA polymerase in Zika virus MR766 infected in African green monkey Vero cells assessed as antiviral activity by Alexa Fluor 488/DAPI staining based assay
Genome polyprotein [10] = target: T1, Genome polyprotein; experiment: Inhibition of RNA-dependent RNA polymerase in Zika virus MR766 infected in African green monkey Vero cells assessed as antiviral activity by measuring reduction in virus-yield
Genome polyprotein [11] = target: T1, Genome polyprotein; experiment: Inhibition of RNA-dependent RNA polymerase in Zika virus MR766 infected in African green monkey Vero cells assessed as antiviral activity by methylene blue staining based by Plaque reduction assay
Genome polyprotein [12] = target: T1, Genome polyprotein; experiment: Inhibition of RNA-dependent RNA polymerase in Zika virus PRVABC-59 infected in African green monkey Vero cells assessed as antiviral activity by neutral dye based colorimetric method
Genome polyprotein [13] = target: T1, Genome polyprotein; experiment: Inhibition of RNA-dependent RNA polymerase in Zika virus Ugandan MR-766 infected in African green monkey Vero cells assessed as antiviral activity by neutral dye based colorimetric method
Genome polyprotein [14] = target: T1, Genome polyprotein; experiment: Inhibition of RNA-dependent RNA polymerase in Zika virus PRVABC-59 infected in human RD cells assessed as antiviral activity by neutral dye based colorimetric method
Genome polyprotein [15] = target: T1, Genome polyprotein; experiment: Inhibition of RNA-dependent RNA polymerase in Zika virus Ugandan MR-766 infected in human RD cells assessed as antiviral activity by neutral dye based colorimetric method
Genome polyprotein [16] = target: T1, Genome polyprotein; experiment: Inhibition of RNA-dependent RNA polymerase in Zika virus PRVABC-59 infected in human HuH7 cells assessed as antiviral activity by neutral dye based colorimetric method
Genome polyprotein [17] = target: T1, Genome polyprotein; experiment: Inhibition of RNA-dependent RNA polymerase in Zika virus Ugandan MR-766 infected in human Huh-7 cells assessed as antiviral activity by neutral dye based colorimetric method
Genome polyprotein [18] = target: T1, Genome polyprotein; experiment: Inhibition of RNA-dependent RNA polymerase in Zika virus Malaysian P 6-740 infected in human Huh-7 cells assessed as antiviral activity by neutral dye based colorimetric method
Genome polyprotein [19] = target: T1, Genome polyprotein; experiment: Inhibition of RNA-dependent RNA polymerase in Zika virus Malaysian P 6-740 infected in African green monkey Vero cells assessed as antiviral activity by neutral dye based colorimetric method
[20] = Inhibition of RNA-dependent RNA polymerase in Zika virus infected in human NPC assessed as antiviral activity by DAPI-staining based assay
[21] = Inhibition of RNA-dependent RNA polymerase in Zika virus infected in African green monkey Vero cells assessed as antiviral activity by DAPI-staining based assay
Nonstructural protein 3 [22] = target: T2, Nonstructural protein 3 (Zika virus, UniProt A0A024AXB9); experiment: Inhibition of NS2B-NS3 protease in Zika virus Puerto Rico/PRVABC5 infected in African green monkey Vero cells assessed as antiviral activity measured 48 hrs post infection by RT-PCR method
T2 sequence (A0A024AXB9 whole entry): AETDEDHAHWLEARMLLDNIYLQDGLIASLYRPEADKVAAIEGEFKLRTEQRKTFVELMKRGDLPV

Nonstructural protein 3 [23] = target: T2, Nonstructural protein 3; experiment: Inhibition of NS2B-NS3 protease in Zika virus Puerto Rico/PRVABC5 assessed as antiviral activity measured 48 hrs post infection by plaque reduction assay
Nonstructural protein 3 [24] = target: T2, Nonstructural protein 3; experiment: Inhibition of NS2B-NS3 protease in Zika virus Puerto Rico/PRVABC5 infected in human Huh7 cells assessed as antiviral activity measured 48 hrs post infection by RT-PCR method
Genome polyprotein [25] = target: T1, Genome polyprotein; experiment: Inhibition of RNA-dependent RNA polymerase in Zika virus FSS13025/2010 infected in African green monkey Vero cells assessed as antiviral activity by measuring viral RNA by RT-qPCR method
Genome polyprotein [26] = target: T1, Genome polyprotein; experiment: Inhibition of RNA-dependent RNA polymerase in Zika virus FSS13025/2010 infected in African green monkey Vero cells assessed as antiviral activity measured 48 hrs post infection by plaque assay
Genome polyprotein [27] = target: T1, Genome polyprotein; experiment: Inhibition of RNA-dependent RNA polymerase in Zika virus GZ01/2016 infected in African green monkey Vero cells assessed as antiviral activity by measuring viral RNA by RT-qPCR method
Genome polyprotein [28] = target: T1, Genome polyprotein; experiment: Inhibition of RNA-dependent RNA polymerase in Zika virus GZ01/2016 infected in African green monkey Vero cells assessed as antiviral activity measured 48 hrs post infection by plaque assay
[29] = Inhibition of RNA-dependent RNA polymerase in Zika virus MR766 infected in African green monkey Vero cells assessed as antiviral activity after 72 hrs by DAPI staining based assay

## C#C[C@@]1(O)[C@H](O)[C@@H](COP(=O)(N[C@@H](C)C(=O)OC(C)C)Oc2ccccc2)O[C@H]1n1ccc(=O)[nH]c1=O (stereo partly specified)
[1]
  EC50: 800 nM
[2]
  EC50: 300 nM

## CCCCCOCc1c(Nc2ccc(S(N)(=O)=O)cc2)nc(N2CCOCC2)nc1C(=O)NCCOc1ccccc1
[3]
  EC50: 2040 nM

## CC(C)OC(=O)[C@H](C)NP(=O)(OC[C@H]1O[C@@H](n2ccc(=O)[nH]c2=O)[C@H](O)[C@@H]1O)Oc1ccccc1 (stereo partly specified)
[1]
  EC50: 2000 nM
[2]
  EC50: 1000 nM

## O=C1c2cccc3cccc(c23)C(=O)N1CCc1ccc(S(=O)(=O)N2CCN(c3ccccc3)CC2)cc1
[4]
  EC50: 4800 nM

## O=C(NC(=S)Nc1ccc(N2CCN(C(=O)c3cccs3)CC2)cc1)c1sc2ccccc2c1Cl
[5]
  EC50: 94 nM

## CC[C@H]1CN2CCc3cc(OC)c(OC)cc3[C@@H]2C[C@@H]1C[C@H]1NCCc2cc(OC)c(OC)cc21 [6',7',10,11-tetramethoxyemetan]
[6]
  EC50: 8.7 nM
[7]
  EC50: 53 nM

## Nc1ncnc2c1ccn2[C@@H]1O[C@H](CO)[C@@H](O)[C@H]1O ['2-(4-AMINO-PYRROLO[2,3-D]PYRIMIDIN-7-YL)-5-HYDROXYMETHYL-TETRAHYDRO-FURAN-3,4-DIOL]
Genome polyprotein [8]
  EC50: 1300 nM
Genome polyprotein [9]
  EC50: 1300 nM
Genome polyprotein [10]
  EC50: 1300 nM
Genome polyprotein [11]
  EC50: 1300 nM

## Nc1ncnc2c([C@@H]3N[C@H](CO)[C@@H](O)[C@H]3O)c[nH]c12 [BCX-4430]
Genome polyprotein [12]
  EC50: 14300 nM
Genome polyprotein [13]
  EC50: 14300 nM
Genome polyprotein [14]
  EC50: 14300 nM
Genome polyprotein [15]
  EC50: 14300 nM
Genome polyprotein [16]
  EC50: 14300 nM
Genome polyprotein [17]
  EC50: 14300 nM
Genome polyprotein [18]
  EC50: 14300 nM
Genome polyprotein [19]
  EC50: 14300 nM

## CC(C)OC(=O)[C@H](C)N[P@](=O)(OC[C@H]1O[C@@H](n2ccc(=O)[nH]c2=O)[C@](C)(F)[C@@H]1O)Oc1ccccc1 [CHEBI:85083]
[20]
  EC50: 120 nM
[21]
  EC50: 30900 nM

## CO[C@@H]1[C@@H](OC(N)=O)[C@@H](O)[C@H](Oc2ccc3c(O)c(NC(=O)c4ccc(O)c(CC=C(C)C)c4)c(=O)oc3c2C)OC1(C)C [Carbamic acid 5-hydroxy-6-{4-hydroxy-3-[4-hydroxy-3-(3-methyl-but-2-enyl)-benzoylamino]-8-methyl-2-oxo-2H-chromen-7-yloxy}-3-methoxy-2,2-dimethyl-tetrahydro-pyran-4-yl ester(Novobiocin)]
Nonstructural protein 3 [22]
  EC50: 24400 nM
Nonstructural protein 3 [23]
  EC50: 24400 nM
Nonstructural protein 3 [24]
  EC50: 24400 nM

## C#C[C@@]1(O)[C@H](O)[C@@H](CO)O[C@H]1n1ccc2c(N)ncnc21 [NITD008]
Genome polyprotein [25]
  EC50: 137 nM
Genome polyprotein [26]
  EC50: 137 nM
Genome polyprotein [27]
  EC50: 137 nM
Genome polyprotein [28]
  EC50: 137 nM

## NC(=O)c1ncn([C@@H]2O[C@H](CO)[C@@H](O)[C@H]2O)n1 [Tribavirin]
[29]
  EC50: 20800 nM
